Measurements taken from patent US10017535B2, “Amphiphilic compounds with neuroprotective properties” (USTAV ORGANICKE CHEMIE A BIOCHEMIE AV CR, v.v.i., priority 2014, dated 2018).

How the values were obtained:
[1] = system: laboratory mice, strain CD-1; type: in vivo; details: intraperitoneally, 1 mg/kg; further: key: −: the desired effect was not observed; −/+: the desired effect was insufficient; +: the desired effect was observed
Description: (§1) In the Experimental Part 1 were used adults (30-35 g) male laboratory mice, strain CD-1 from Velaz facility, Czech Republic. Mice were housed in plastic boxes with a 12-hour light cycle (lights on at 7:00 pm). Mice had free access to food and water.
Thus there were prepared solutions of the four steroids for application rates of 0.1, 1, 10 and 100 mg/kg.
Laboratory mouse was chosen as a model organism for this experiment. The following experiments were performed as described in Front Behay. Neurosci.
The purpose of the primary behavioral testing was quickly determined the effect of compounds on CNS dependent functions and any signs of toxicity. A simplified modification Irwin test was selected with respect to the behavioral profile of NMDA receptor antagonists. Mice were tested individually. The study drug was administered intraperitoneally (Table 3) at a dose of 1 mg/kg. The control group consisted of individuals that received the CDX solution or saline.

[2] = system: laboratory mice, strain CD-1; assay: Open field test (locomotor activity, sedative effect); on Sedative Effect The Rapid Onset of Sedation at a Dose of 100 mg/kg: key: −: the desired effect was not observed; −/+: the desired effect was insufficient; +: the desired effect was observed; type: in vivo; details: for pathway in open field: dose 10 and 100 mg/kg, vs intact mice; for locomotor activity over time: higher dose of 10 resp. 100 mg/kg; for Sedative Effect The Rapid Onset of Sedation at a Dose of 100 mg/kg / Open Field Test No Evidence of Hyperlocomotion: intraperitoneally; for Open Field Test No Evidence of Hyperlocomotion: 0.1-100 mg/kg; for hyperlocomotion in open field: lower doses (below 10 mg/kg)
In short: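 Adult male CD-1 mice (30-35 g) received steroids at 0.1-100 mg/kg i.p. in cyclodextrin/citrate vehicle (pH 7.4) before the open-field test. Intact and vehicle controls and MK-801 0.3 mg/kg were included. Total track and ten-minute segments gave locomotor activity, onset latency and time course, with tremor, ataxia, sedation or anesthesia noted.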

[3] = system: laboratory mice, strain CD-1; assay: Passive avoidance test (aversive motivated memory); type: in vivo; further: key: −: the desired effect was not observed; −/+: the desired effect was insufficient; +: the desired effect was observed
Description: as §1
Aversive motivated memory test was evaluated on the basis of latency input into the preferred, but unpleasant sensation associated with delivery device.

[4] = target: T1, NR1-1a/NR2B NMDA receptor (Rattus norvegicus, UniProt P35439+Q00960); assay: Patch-clamp inhibition of glutamate-evoked currents at recombinant NMDA receptors in transfected HEK293 cells; type: cell-based; details: for IC50: calculated from relative steroid-induced inhibition, Hill's coefficient 1.2, read-out: IC50
T1 construct: expressed in transfected cells; host or cells: HEK293 cells (ATCC CRL1573)
T1 sequence (Q00960 27-1482, other chains not shown): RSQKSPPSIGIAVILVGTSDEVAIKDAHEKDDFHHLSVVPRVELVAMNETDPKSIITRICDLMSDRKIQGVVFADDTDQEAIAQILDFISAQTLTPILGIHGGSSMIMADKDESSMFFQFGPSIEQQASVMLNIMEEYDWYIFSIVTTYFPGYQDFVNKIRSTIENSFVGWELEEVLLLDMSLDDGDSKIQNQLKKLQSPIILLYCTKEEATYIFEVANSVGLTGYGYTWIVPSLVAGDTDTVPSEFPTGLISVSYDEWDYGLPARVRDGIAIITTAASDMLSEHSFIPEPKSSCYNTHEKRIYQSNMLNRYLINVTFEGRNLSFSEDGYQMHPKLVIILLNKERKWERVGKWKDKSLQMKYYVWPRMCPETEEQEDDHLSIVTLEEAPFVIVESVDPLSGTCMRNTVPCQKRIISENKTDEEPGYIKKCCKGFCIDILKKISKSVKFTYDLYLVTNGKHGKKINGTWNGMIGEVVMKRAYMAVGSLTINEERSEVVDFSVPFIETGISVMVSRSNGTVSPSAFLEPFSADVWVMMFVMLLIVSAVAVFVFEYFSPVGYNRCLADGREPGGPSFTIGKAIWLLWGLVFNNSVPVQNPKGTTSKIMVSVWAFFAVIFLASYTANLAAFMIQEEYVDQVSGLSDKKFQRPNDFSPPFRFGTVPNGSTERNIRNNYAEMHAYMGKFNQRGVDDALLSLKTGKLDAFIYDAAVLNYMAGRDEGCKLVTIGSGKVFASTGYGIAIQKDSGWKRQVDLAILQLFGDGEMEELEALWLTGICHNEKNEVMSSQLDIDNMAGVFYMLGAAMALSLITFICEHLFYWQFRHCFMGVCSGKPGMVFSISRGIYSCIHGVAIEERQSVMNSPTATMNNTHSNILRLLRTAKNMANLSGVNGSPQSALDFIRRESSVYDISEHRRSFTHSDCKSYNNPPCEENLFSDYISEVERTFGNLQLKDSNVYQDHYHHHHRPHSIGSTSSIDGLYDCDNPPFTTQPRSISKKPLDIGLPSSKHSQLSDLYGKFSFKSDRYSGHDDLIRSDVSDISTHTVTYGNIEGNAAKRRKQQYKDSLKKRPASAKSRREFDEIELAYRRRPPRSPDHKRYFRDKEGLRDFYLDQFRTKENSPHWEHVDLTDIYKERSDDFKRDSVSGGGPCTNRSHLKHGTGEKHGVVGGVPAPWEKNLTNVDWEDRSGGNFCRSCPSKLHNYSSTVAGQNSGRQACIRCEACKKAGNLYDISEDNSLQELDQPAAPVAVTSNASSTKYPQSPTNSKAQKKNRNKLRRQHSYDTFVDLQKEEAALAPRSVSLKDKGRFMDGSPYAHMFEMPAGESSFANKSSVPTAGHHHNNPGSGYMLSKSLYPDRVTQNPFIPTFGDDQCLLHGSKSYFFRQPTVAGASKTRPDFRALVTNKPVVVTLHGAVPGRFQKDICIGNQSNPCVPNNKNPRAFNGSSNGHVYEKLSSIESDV
In short: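 HEK293 cells co-transfected with rat NR1-1a/NR2B plus GFP were whole-cell patch-clamped 16-40 h post-transfection at −60 mV. Currents were evoked by 1 mmol·l^−1 glutamate with 10 μmol·l^−1 glycine in ECS pH 7.3, and steroid was co-applied in DMSO via fast perfusion. IC50 came from relative inhibition.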

[5] = system: laboratory mice, strain CD-1; assay: Forced swimming test (antidepressant effect); type: in vivo; on Forced Swimming Test Reduced Floating: key: −: the desired effect was not observed; −/+: the desired effect was insufficient; +: the desired effect was observed
Description: as §1
This assay was used to monitor the antidepressant effect. Animals float 6 minutes in acrylic cylinder in water at 24° C. A period of immobility is evaluated. The reduction is a manifestation of anti-depressant properties of drugs.

Molecule | Behavioural Test No Evidence of Toxicity [1] | pathway in open field [2] | locomotor activity over time [2] | Sedative Effect The Rapid Onset of Sedation at a Dose of 100 mg/kg [2] | Passive Avoidance Test No Memory Violation [3] | inhibition at 10 µM ([4]; HEK293, steroid concentration 10 μmol·l^−1, 1 mmol·l^−1 glutamate, −60 mV, read-out: Mean % change ± SD) [%] | IC50 [4] [µM] | Forced Swimming Test Reduced Floating [5] | signs of sleepiness and overall sedation ([2]; 10 resp. 100 mg/kg, between the 20th and 40th minute) | Open Field Test No Evidence of Hyperlocomotion [2] | hyperlocomotion in open field [2] | inhibition at 1 µM ([4]; HEK293, read-out: Mean % change ± SD) [%] | flotation (immobility) ([5]; 1 mg/kg) | latency to the first flotation ([5]; 1 mg/kg) | Mean % change ± SD ([4]; steroid concentration 100 μmol·l^−1, 1 mmol·l^−1 glutamate, −60 mV) [%]
C[C@@]12CCCCC1[C@@H]1CC[C@@H]3C[C@H](OC(=O)[C@@H](N)CCC(=O)O)CC[C@]3(C)[C@H]1CC2 (stereo partly drawn) [Compound 106, (4S)-4-Amino-5-(((2R,4aS,4bS,6aS,10bS,12aR)-4a,6a-dimethyloctadekahydrochrysen-2-yl)oxy)-5-oxopentanoic acid] | + | significant reduction | significant decrease | − | + | 48.7 ± 6.3 | 10.6 | − |  |  |  |  |  |  | 
C[C@@]12CCC[C@H]1[C@@H]1CC[C@@H]3C[C@H](OC(=O)[C@@H](N)CCC(=O)O)CC[C@]3(C)[C@H]1CC2 [Compound 130, (4S)-4-Amino-5-(((3R,5R,8S,9S,10S,13S,14S)-10,13-dimethylhexadecahydro-1H-cyclopenta[a]phenanthren-3-yl)oxy)-5-oxopentanoic acid] | + | significant reduction | significant decrease | + | + |  | 1.6 | + | most pronounced | + | not (unlike groups with dizocilpine) observed hyperlocomotion | 36.7 ± 7 | significant decrease | longer latency | 
Pyridinium (3S,3aS,5bR,7aR,9R,11aS,11bS,13aR)-3,11a-dimethylhexadecahydro-1H,3H-naphtho[2′,1′:4,5]indeno[1,7a-c]furan-9-yl 9-sulfate [Compound 124] | + | significant reduction | significant decrease | − | −/+ |  | 51 | − |  | + | not (unlike groups with dizocilpine) observed hyperlocomotion |  |  |  | 69.1 ± 4.0
